Reference: patent publication US20180327367A1, “MACROCYCLIC BROAD SPECTRUM ANTIBIOTICS” (priority 2015, published 2018)
≈ marks a conversion by molar mass, not a printed value. Read-outs that look alike come from different tables or passages of the source.

Experiments:
[1] = system: Methicillin Resistant Staphylococcus aureus strain USA 300, NRS384; assay: Minimum inhibitory concentration, broth micro-dilution (CLSI), S. aureus; format: cell-based; conditions: Staphylococcus aureus, MRSA / NRS 384 / USA300, 22 h, 35° C., 22 hours
How it was run: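 Colonies grown 20 hours at 35° C were suspended in cation-adjusted Mueller Hinton Broth with 0.002% Tween-80. Cells were then added to 2-fold compound dilutions starting at 4 or 0.5 μg/mL, at OD600 0.0005.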

[2] = biological target: T1, SpsB (Staphylococcus aureus signal peptidase) (Staphylococcus aureus, UniProt P0A070); assay: cell-based; format: biochemical; conditions: SpsB IC50, whole-cell S. aureus (USA300 background, overexpressing SpsB) as SpsB source; fluorogenic peptide substrate, kinetic read 30 min
T1 construct: This assay uses a suspension of Staphylococcus aureus cells as a source of SpsB instead of recombinant SpsB protein; endogenous in cells; host or cells: S. aureus, USA300 background, overexpressing SpsB (whole-cell suspension from frozen pellets)
Method: A kinetic fluorogenic enzyme activity assay was used to assess inhibition of SpsB (Staphylococcus aureus signal peptidase) activity and IC50s were determined. This assay uses a suspension of Staphylococcus aureus cells as a source of SpsB instead of recombinant SpsB protein.
Cell preparation: Luria broth (LB) was inoculated with S. aureus (USA300 background, overexpressing SpsB) and shaken at 37° C. until an OD600 nm of 1.5-2.0 was reached (˜4 hr). The culture was then diluted to an OD600 nm of 1.0 with LB, aliquoted and centrifuged at 10,000×g for 2 mins. The supernatant was removed and the pellet was resuspended in phosphate buffer (1×PBS, 12.5 mg/L MgCl2, 25 mg/L CaCl2, 0.1% Tween-80) to an OD600 nm of 0.5, then centrifuged again at 10,000x g for 2 mins. The supernatant was removed and the pellets were frozen at −20° C.
Test compounds were prepared in DMSO at a concentration of 10 mg/mL. These compound stocks were diluted into DMSO to a concentration of 25 μg/mL and serial 3-fold dilutions were made in DMSO, for a total of 11 compound concentrations. 20 nL of each compound solution was pre-spotted into a white 384-well plate (50 μL/well polypropylene, Nunc) using acoustic fluid transfer (Echo).
Frozen S. aureus pellets were resuspended in assay buffer (1x PBS, 12.5 mg/L MgCl2, 25 mg/L CaCl2, 0.1% Tween-80) to an OD600 nm of 0.05, then mixed 1:1 (v/v) with 20 μM substrate ((Dabcyl)βAla-KPAKAAE(Edans)) in assay buffer, and this solution was added (20 μL/well) to the 384-well plate that had been pre-spotted with compound. Fluorescence intensity was then immediately read kinetically for 30 minutes with 2 minute read intervals to monitor cleavage of the internally quenched peptide substrate (excitation wavelength=340 nm, emission wavelength=490 nm, Molecular Devices Spectramax M5). Reaction rate (slope) was plotted against inhibitor concentration to derive the IC50.

[3] = system: Escherichia coli ATCC 25922; assay: Minimum inhibitory concentration, broth micro-dilution (CLSI), E. coli; format: cell-based; conditions: Escherichia coli, ATCC25922, 22 h, 35° C., 22 hours
[4] = system: Escherichia coli MC4100 harboring the IMP4213 (E. coli IMP); assay: microbe, parasite or virus in culture; format: cell-based; conditions: Escherichia coli, 22 h, read-out: MIC (μg/mL) E. coli IMP, E. coli MC4100 IMP4213, increased outer-membrane permeability; 35° C., 22 hours
How it was run: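 Ten 2-fold dilutions, from 4 μg/mL or from 0.5 μg/mL depending on protocol, are challenged with bacteria at OD600 0.0005 in Tween-80-supplemented cation-adjusted Mueller Hinton Broth. Plates incubate 22 hours at 35° C per CLSI. The E. coli IMP4213 strain has increased outer-membrane permeability.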

[5] = MRSA USA 300 NRS384, read-out: MIC (μg/mL) S. aureus
[6] = E. coli ATCC 25922, read-out: MIC (μg/mL) E. coli
[7] = read-out: MIC (μg/mL) S. aureus, MRSA USA 300 NRS384
[8] = read-out: MIC (μg/mL) E. coli, E. coli ATCC 25922

T1 sequence (P0A070 whole entry): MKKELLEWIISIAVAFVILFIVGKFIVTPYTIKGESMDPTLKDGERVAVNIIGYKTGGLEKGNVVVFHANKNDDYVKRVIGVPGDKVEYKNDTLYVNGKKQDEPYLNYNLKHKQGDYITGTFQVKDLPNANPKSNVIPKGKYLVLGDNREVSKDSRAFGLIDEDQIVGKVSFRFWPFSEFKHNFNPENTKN

Compound	MIC [1, 5] [µg/mL]	IC50 [2] [nM]	MIC [3, 6] [µg/mL]	MIC [4] [µg/mL]	MIC [1, 7] [µg/mL]	MIC [3, 8] [µg/mL]
CCCCCCCc1ccc(C(=O)N[C@@H](CN)C(=O)N(C)[C@@H]2C(=O)N[C@@H](C)C(=O)N[C@H](C(=O)NCC#N)Cc3ccc(OCCN)c(c3)-c3cc2ccc3OCCN)c(C)c1 [Compound 202]	0.031 (≈ 0.0369 µM)	0.66	0.25 (≈ 0.298 µM)	0.016 (≈ 0.019 µM)		
CCc1ccc(-c2ccc(C(=O)N[C@@H](CCN)C(=O)N(C)[C@@H]3C(=O)N[C@@H](C)C(=O)N[C@H](C(=O)NCC#N)Cc4ccc(OCCN)c(c4)-c4cc3ccc4OCCN)c(C)c2)cc1 [Compound 151]	0.031 (≈ 0.036 µM)	0.59	0.31 (≈ 0.36 µM)	0.012 (≈ 0.014 µM)		
C[C@@H]1NC(=O)[C@@H](N(C)C(=O)[C@H](CCN)NC(=O)c2ccc(CCc3ccccc3)cc2)c2ccc(OCCN)c(c2)-c2cc(ccc2OCCN)C[C@@H](C(=O)NCC#N)NC1=O [Compound 121]		1.2		0.023 (≈ 0.0272 µM)	0.13 (≈ 0.154 µM)	2 (≈ 2.36 µM)
Cc1cc(C2CCCC2)ccc1C(=O)N[C@@H](CCN)C(=O)N(C)[C@@H]1C(=O)N[C@@H](C)C(=O)N[C@H](C(=O)NCC#N)Cc2ccc(OCCN)c(c2)-c2cc1ccc2OCCN [Compound 215]	0.19 (≈ 0.231 µM)	0.97	1.8 (≈ 2.18 µM)	0.039 (≈ 0.0473 µM)		
CCCCCCCCCNCCCC(=O)N(C)[C@@H]1C(=O)N[C@@H](C)C(=O)N[C@H](C(=O)NCC#N)Cc2ccc(OCCN)c(c2)-c2cc1ccc2OCCN [Compound 133]	0.25 (≈ 0.334 µM)	1.1	> 64	> 4		
C[C@@H]1NC(=O)[C@@H](N(C)C(=O)[C@H](CCN)NC(=O)c2ccc(-c3ccc(C4CCCCC4)cc3)cc2)c2ccc(OCCN)c(c2)-c2cc(ccc2OCCN)C[C@@H](C(=O)NCC#N)NC1=O [Compound 432]		1.4		0.016 (≈ 0.0178 µM)	0.094 (≈ 0.104 µM)	0.13 (≈ 0.144 µM)
CCCCCc1ccc(-c2ncc(C(=O)N[C@@H](CCN)C(=O)N(C)[C@@H]3C(=O)N[C@@H](C)C(=O)N[C@H](C(=O)NCC#N)Cc4ccc(OCCN)c(c4)-c4cc3ccc4OCCN)c(C)n2)cc1 [Compound 162]	0.023 (≈ 0.0254 µM)	0.72	0.063 (≈ 0.0697 µM)	0.0025 (≈ 0.00277 µM)		
CCCCCCCc1cc(Cl)c(C(=O)N[C@@H](CCN)C(=O)N(C)[C@@H]2C(=O)N[C@@H](C)C(=O)N[C@H](C(=O)NCC#N)Cc3ccc(OCCN)c(c3)-c3cc2ccc3OCCN)c(Cl)c1 [Compound 226]	0.094 (≈ 0.103 µM)	0.88	0.38 (≈ 0.418 µM)	0.012 (≈ 0.0132 µM)		
Cc1cc(OCC(C)C)ccc1C(=O)N[C@@H](CCN)C(=O)N(C)[C@@H]1C(=O)N[C@@H](C)C(=O)N[C@H](C(=O)NCC#N)Cc2ccc(OCCN)c(c2)-c2cc1ccc2OCCN [Compound 276]	0.58 (≈ 0.7 µM)	1.8	2 (≈ 2.42 µM)	0.031 (≈ 0.0374 µM)		
C[C@@H]1NC(=O)[C@@H](N(C)C(=O)[C@H](CCN)NC(=O)c2ccc(-c3ccc(-c4ccccc4)cc3)cc2)c2ccc(OCCN)c(c2)-c2cc(ccc2OCCN)C[C@@H](C(=O)NCC#N)NC1=O [Compound 122]		1.6		0.031 (≈ 0.0347 µM)	0.063 (≈ 0.0705 µM)	0.25 (≈ 0.28 µM)
C[C@@H]1NC(=O)[C@@H](N(C)C(=O)[C@H](CO)NC(=O)c2ccc(-c3ccc(Cl)cc3)cc2)c2ccc(OCCN)c(c2)-c2cc(ccc2OCCN)C[C@@H](C(=O)NCC#N)NC1=O [Compound 233]		4		0.13 (≈ 0.155 µM)	0.5 (≈ 0.596 µM)	32 (≈ 38.1 µM)
Cc1nc(-c2ccc(CC(C)C)cc2)ncc1C(=O)N[C@@H](CCN)C(=O)N(C)[C@@H]1C(=O)N[C@@H](C)C(=O)N[C@H](C(=O)NCC#N)Cc2ccc(OCCN)c(c2)-c2cc1ccc2OCCN [Compound 157]	0.023 (≈ 0.0258 µM)	0.79	0.098 (≈ 0.11 µM)	0.0034 (≈ 0.00382 µM)		
Cc1cc(-n2cc(CC(C)C)cn2)ccc1C(=O)N[C@@H](CCN)C(=O)N(C)[C@@H]1C(=O)N[C@@H](C)C(=O)N[C@H](C(=O)NCC#N)Cc2ccc(OCCN)c(c2)-c2cc1ccc2OCCN [Compound 445]	0.094 (≈ 0.107 µM)	1	1 (≈ 1.14 µM)	0.016 (≈ 0.0182 µM)		
Cc1cc(-c2cnc(CC(C)C)nc2)ccc1C(=O)N[C@@H](CCN)C(=O)N(C)[C@@H]1C(=O)N[C@@H](C)C(=O)N[C@H](C(=O)NCC#N)Cc2ccc(OCCN)c(c2)-c2cc1ccc2OCCN [Compound 179]	0.047 (≈ 0.0528 µM)	1.8	0.19 (≈ 0.213 µM)	0.0078 (≈ 0.00876 µM)		
CCCCc1ccc(C(=O)N[C@@H](CCN)C(=O)N(C)[C@@H]2C(=O)N[C@@H](C)C(=O)N[C@H](C(=O)NCC#N)Cc3ccc(OCCN)c(c3)-c3cc2ccc3OCCN)c(C)c1 [Compound 208]	0.25 (≈ 0.308 µM)	0.99	1.3 (≈ 1.6 µM)	0.029 (≈ 0.0357 µM)		
Cc1cc(-c2ccc(-c3ccccc3)cc2)ccc1C(=O)N[C@@H](CCN)C(=O)N(C)[C@@H]1C(=O)N[C@@H](C)C(=O)N[C@H](C(=O)NCC#N)Cc2ccc(OCCN)c(c2)-c2cc1ccc2OCCN [Compound 144]	0.031 (≈ 0.0341 µM)	0.91	0.16 (≈ 0.176 µM)	0.053 (≈ 0.0584 µM)		
CCCCc1ccc(-c2ccc(C(=O)N[C@@H](CN)C(=O)N(C)[C@@H]3C(=O)N[C@@H](C)C(=O)N[C@H](C(=O)NCC#N)Cc4ccc(OCCC)c(c4)-c4cc3ccc4OCCN)cc2)cc1 [Compound 322]	1.5 (≈ 1.75 µM)	8.4	4 (≈ 4.66 µM)	0.13 (≈ 0.151 µM)		
CCCCCCCCCCS(=O)(=O)N[C@@H](CCN)C(=O)N(C)[C@@H]1C(=O)N[C@@H](C)C(=O)N[C@H](C(=O)NCC#N)Cc2ccc(OCCN)c(c2)-c2cc1ccc2OCCN [Compound 346]	0.031 (≈ 0.0368 µM)	0.7	8 (≈ 9.5 µM)	0.063 (≈ 0.0748 µM)		
CCCCc1ccc(Oc2ncc(C(=O)N[C@@H](CCN)C(=O)N(C)[C@@H]3C(=O)N[C@@H](C)C(=O)N[C@H](C(=O)NCC#N)Cc4ccc(OCCN)c(c4)-c4cc3ccc4OCCN)c(C)n2)cc1 [Compound 306]	0.031 (≈ 0.0342 µM)	0.69	1 (≈ 1.1 µM)	0.0078 (≈ 0.00861 µM)		
CCCCc1ccc(-c2ccc(C(=O)N[C@@H](CN)C(=O)N(C)[C@@H]3C(=O)N[C@@H](C)C(=O)N[C@H](C(=O)NCC#N)Cc4ccc(OCCO)c(c4)-c4cc3ccc4OCCN)cc2)cc1 [Compound 321]		1.8		0.016 (≈ 0.0186 µM)	0.38 (≈ 0.441 µM)	1 (≈ 1.16 µM)
CCCCCCCOc1cc(C)c(C(=O)N[C@@H](CCN)C(=O)N(C)[C@@H]2C(=O)N[C@@H](C)C(=O)N[C@H](C(=O)NCC#N)Cc3ccc(OCCN)c(c3)-c3cc2ccc3OCCN)c(Cl)c1 [Compound 299]	0.094 (≈ 0.104 µM)	1.1	0.5 (≈ 0.553 µM)	0.016 (≈ 0.0177 µM)		
C[C@@H]1NC(=O)[C@@H](N(C)C(=O)[C@H](CCN)NC(=O)c2ccc(-c3ccc4c(c3)CCCC4)cc2F)c2ccc(OCCN)c(c2)-c2cc(ccc2OCCN)C[C@@H](C(=O)NCC#N)NC1=O [Compound 139]		0.94		0.012 (≈ 0.0135 µM)	0.047 (≈ 0.0528 µM)	0.25 (≈ 0.281 µM)
CCCCCCCCCCCCCC(=O)N(C)[C@@H]1C(=O)N[C@@H](C)C(=O)N[C@H](C(=O)NCC#N)Cc2ccc(OCCN(C)C)c(c2)-c2cc1ccc2OCCN(C)C [Compound 460]	2 (≈ 2.49 µM)	14	16 (≈ 19.9 µM)	1.5 (≈ 1.87 µM)		
Cc1cc(C#CC(C)C)ccc1C(=O)N[C@@H](CCN)C(=O)N(C)[C@@H]1C(=O)N[C@@H](C)C(=O)N[C@H](C(=O)NCC#N)Cc2ccc(OCCN)c(c2)-c2cc1ccc2OCCN [Compound 309]	0.19 (≈ 0.231 µM)	1	1.1 (≈ 1.34 µM)	0.02 (≈ 0.0243 µM)		
